From patent US9512425B2, “Inhibiting migration of cancer cells” (Cornell University, priority 2012, dated 2016)
“Also recorded” adds a separate entry of the source.

Tested on: MDA-LM2 (LM2)
Assay: Orthotopic MDA-LM2 tumor / pulmonary metastasis model
Type: in vivo, mice
Method: For orthotopic injection, 1×10^6 viable MDA-MB-231, MDA-Cont, or MDA-miR-708 cells were injected into CB-17 SCID mice fat pads in a volume of 0.1 ml. Tumor growth and pulmonary metastases (following resection of primary tumor) were monitored by live animal bioluminescent imaging (Xenogen IVIS system) once per week.
Mice inoculated with firefly luciferase were anaesthetized and injected retro-orbitally with 75 mg/kg of D-luciferin (30 mg/mL in PBS). Images were taken with mice in a supine position using the Xenogen IVIS system coupled to Living Image acquisition and analysis software (Xenogen). For bioluminescence (BLI) plots, photon flux was calculated for each mouse by using a rectangular region of interest encompassing the thorax of the mouse.
Paraffin embedded sections (5 μm) were deparaffinized following standard protocols. […] Images were obtained with an Axiovert 40 CFL microscope coupled with Axioversion 4.8.2 software (Carl Zeiss). For nodule counting, lungs were perfused, isolated and OCT embedded and sectioned for immunohistochemical analysis. Cryosections (8 μm) were mounted on glass slides and stained with hematoxylin and eosin (H&E).
To measure number of CTC in blood, 100 μl of peripheral blood was collected from mice bearing orthotopic […] expressing MDA and MDA-mir-708 breast tumors. Total RNA was isolated and subjected to Taqman Q-PCR for GFP transgene. To convert quantitative-PCR data into number of CTCs, a standard curve was generated by serially diluting GFP+MDA tumor spiked into […] of normal wild type mouse blood.

miR-708: microRNA, mature sequence 5'-AAGGAGCUUACAAUCUAGCUGGG-3' (SEQ ID NO: 2); expressed from lentiviral vector or used as synthetic precursor
primary tumor growth (LM2 cells over-expressing miR-708, day 60): remained unperturbed | lung metastases (photon flux) (LM2 cells over-expressing miR-708, day 67): significantly lower photon flux; also recorded: pronounced reduction | number of lung metastatic nodules (MDA-LM2-miR-708 vs controls, H&E sections): reduced numbers | number of circulating tumor cells (CTCs) (peripheral blood of MDA-LM2-miR-708 tumor bearing mice vs controls): reduced number | primary tumor size measurements (weight over time, FIG. 7H): unaffected
